According to ChEMBL document CHEMBL1201862, “PubChem BioAssay data set” (2004):
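Briefly, cells in 96-well plates were exposed to five compound concentrations for 48 h, and endpoints were estimated by linear interpolation. GI50 = concentration required for 50% inhibition of growth.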 The source made the active and inactive calls. No stated cut-off is given here; in the data, active = GI50 up to about 1.1 µM and inactive = higher.

Legend:
Experiment in all cases: inhibition of tumour cell growth, NCI panel, 48 h
K562 = system: K562
SF-539 = system: SF-539
RPMI-8226 = system: RPMI-8226
UACC-62 = system: UACC-62
SW-620 = system: SW-620
OVCAR-4 = system: OVCAR-4
HOP-62 = system: HOP-62
KM12 = system: KM12
DMS-273 = system: DMS-273
UO-31 = system: UO-31
SR = system: SR
OVCAR-5 = system: OVCAR-5
OVCAR-8 = system: OVCAR-8
HL-60 = system: HL-60
SNB-78 = system: SNB-78
HOP-92 = system: HOP-92
SN12C = system: SN12C
A549 = system: A549
HT-29 = system: HT-29
HCC 2998 = system: HCC 2998
SK-MEL-5 = system: SK-MEL-5
HOP-18 = system: HOP-18
ACHN = system: ACHN
KM-20L2 = system: KM-20L2
UACC-257 = system: UACC-257
MOLT-4 = system: MOLT-4
U-251 = system: U-251
NCI-H23 = system: NCI-H23
SNB-19 = system: SNB-19
COLO 205 = system: COLO 205
M19-MEL = system: M19-MEL
TK-10 = system: TK-10
SK-MEL-2 = system: SK-MEL-2
IGROV-1 = system: IGROV-1
HCT-15 = system: HCT-15
RXF 393 = system: RXF 393
CCRF-CEM = system: CCRF-CEM
SNB-75 = system: SNB-75
DMS-114 = system: DMS-114
LOX IMVI = system: LOX IMVI
NCI-H460 = system: NCI-H460
SF-268 = system: SF-268
EKVX = system: EKVX
HCT-116 = system: HCT-116
M14 = system: M14
SK-MEL-28 = system: SK-MEL-28
OVCAR-3 = system: OVCAR-3
LXFL 529 = system: LXFL 529
SK-OV-3 = system: SK-OV-3
SF-295 = system: SF-295
786-0 = system: 786-0
A498 = system: A498
Malme-3M = system: Malme-3M
NCI-H522 = system: NCI-H522

O=C(NNC(=O)c1nsc2ccccc12)c1ccc(Cl)cc1
GI50 (K562): 19.1 µM (inactive) | GI50 (SF-539): 17 µM (inactive) | GI50 (RPMI-8226): 20.4 µM (inactive) | GI50 (UACC-62): > 10 µM (inactive) | GI50 (SW-620): 35.4 µM (inactive) | GI50 (OVCAR-4): > 10 µM (inactive) | GI50 (HOP-62): 18.3 µM (inactive) | GI50 (KM12): 27.2 µM (inactive) | GI50 (DMS-273): 8.11 µM (inactive) | GI50 (UO-31): 18.9 µM (inactive) | GI50 (SR): 25.1 µM (inactive) | GI50 (OVCAR-5): 20.4 µM (inactive) | GI50 (OVCAR-8): 29.2 µM (inactive) | GI50 (HL-60): 23.7 µM (inactive) | GI50 (SNB-78): 24.8 µM (inactive) | GI50 (HOP-92): 17.1 µM (inactive) | GI50 (SN12C): 17.6 µM (inactive) | GI50 (A549): 21.7 µM (inactive) | GI50 (HT-29): 20.3 µM (inactive) | GI50 (HCC 2998): 16.9 µM (inactive) | GI50 (SK-MEL-5): 23.8 µM (inactive) | GI50 (HOP-18): 10.2 µM (inactive) | GI50 (ACHN): > 100 µM (inactive) | GI50 (KM-20L2): 19.8 µM (inactive) | GI50 (UACC-257): 21.2 µM (inactive) | GI50 (MOLT-4): 20.4 µM (inactive) | GI50 (U-251): 16.7 µM (inactive) | GI50 (NCI-H23): 21.9 µM (inactive) | GI50 (SNB-19): 19.1 µM (inactive) | GI50 (COLO 205): 23.7 µM (inactive) | GI50 (M19-MEL): 20 µM (inactive) | GI50 (TK-10): 26.3 µM (inactive) | GI50 (SK-MEL-2): 22.3 µM (inactive) | GI50 (IGROV-1): 34.5 µM (inactive) | GI50 (HCT-15): 18.2 µM | GI50 (RXF 393): 14 µM (inactive) | GI50 (CCRF-CEM): 19 µM (inactive) | GI50 (SNB-75): 2.93 µM (inactive) | GI50 (DMS-114): > 10 µM (inactive) | GI50 (LOX IMVI): 18.1 µM (inactive) | GI50 (NCI-H460): > 100 µM (inactive) | GI50 (SF-268): 17.7 µM (inactive) | GI50 (EKVX): 18.2 µM (inactive) | GI50 (HCT-116): 17.5 µM (inactive) | GI50 (M14): 19.5 µM (inactive) | GI50 (SK-MEL-28): 16.9 µM (inactive) | GI50 (OVCAR-3): 17.2 µM (inactive) | GI50 (LXFL 529): 19.7 µM (inactive)

COc1ccc2c(c1)CC[C@@H]1C2CC[C@]2(C)C(=O)N(N)C(=O)CC12 (stereo partly drawn)
GI50 (K562): 32.6 µM (inactive) | GI50 (RPMI-8226): 28.8 µM (inactive) | GI50 (UACC-62): 80.9 µM (inactive) | GI50 (OVCAR-4): > 100 µM (inactive) | GI50 (HOP-62): > 100 µM (inactive) | GI50 (SK-OV-3): > 100 µM (inactive) | GI50 (KM12): > 100 µM (inactive) | GI50 (UO-31): 72.9 µM (inactive) | GI50 (SR): 38 µM (inactive) | GI50 (OVCAR-5): > 100 µM (inactive) | GI50 (SF-295): > 100 µM (inactive) | GI50 (SNB-78): 77.4 µM (inactive) | GI50 (786-0): > 100 µM (inactive) | GI50 (HOP-92): > 100 µM (inactive) | GI50 (HT-29): > 100 µM (inactive) | GI50 (ACHN): > 100 µM (inactive) | GI50 (KM-20L2): 32.9 µM (inactive) | GI50 (UACC-257): 35.6 µM (inactive) | GI50 (MOLT-4): 44.4 µM (inactive) | GI50 (U-251): > 100 µM (inactive) | GI50 (NCI-H23): > 100 µM (inactive) | GI50 (SNB-19): > 100 µM (inactive) | GI50 (COLO 205): > 100 µM (inactive) | GI50 (M19-MEL): > 100 µM (inactive) | GI50 (A498): 35.8 µM (inactive) | GI50 (SK-MEL-2): > 100 µM (inactive) | GI50 (IGROV-1): > 100 µM (inactive) | GI50 (RXF 393): > 10 µM (inactive) | GI50 (Malme-3M): > 100 µM (inactive) | GI50 (CCRF-CEM): 80 µM (inactive) | GI50 (NCI-H522): 48.8 µM (inactive) | GI50 (SNB-75): > 100 µM (inactive) | GI50 (DMS-114): 44.5 µM (inactive) | GI50 (NCI-H460): 37.2 µM (inactive) | GI50 (SF-268): > 100 µM (inactive) | GI50 (HCT-116): > 100 µM (inactive) | GI50 (M14): 78.3 µM (inactive) | GI50 (SK-MEL-28): > 100 µM (inactive) | GI50 (OVCAR-3): > 100 µM (inactive) | GI50 (LXFL 529): 52.6 µM (inactive)
